Assay results published in ChEMBL document CHEMBL1275533, “In vitro antibacterial activity of vertilmicin and its susceptibility to modifications by the recombinant AAC6'-APH2'' enzyme” (2008).
Converted amounts (≈) assume the structure as drawn. The source made the active and inactive calls. The rule behind the calls is not given here.

Legend:
Escherichia coli [1] = test: Antibacterial activity against non-gentamicin-resistant Escherichia coli clinical isolate after 18 hrs by agar dilution method; assay type: functional
Enterobacter cloacae [2] = test: Antibacterial activity against non-gentamicin-resistant Enterobacter cloacae clinical isolate after 18 hrs by agar dilution method; assay type: functional
Klebsiella aerogenes = test: Antibacterial activity against non-gentamicin-resistant Enterobacter aerogenes clinical isolate after 18 hrs by agar dilution method; assay type: functional
Proteus mirabilis [3] = test: Antibacterial activity against non-gentamicin-resistant Proteus mirabilis clinical isolate after 18 hrs by agar dilution method; assay type: functional
Serratia marcescens [4] = test: Antibacterial activity against non-gentamicin-resistant Serratia marcescens clinical isolate after 18 hrs by agar dilution method; assay type: functional
Morganella morganii [5] = test: Antibacterial activity against non-gentamicin-resistant Morganella morganii clinical isolate after 18 hrs by agar dilution method; assay type: functional
Citrobacter freundii = test: Antibacterial activity against non-gentamicin-resistant Citrobacter freundii clinical isolate after 18 hrs by agar dilution method; assay type: functional
Providencia rettgeri [6] = test: Antibacterial activity against non-gentamicin-resistant Proteus rettgeri clinical isolate after 18 hrs by agar dilution method; assay type: functional
[7] = system: Acinetobacter calcoaceticus; test: Antibacterial activity against non-gentamicin-resistant Acinetobacter calcoaceticus clinical isolate after 18 hrs by agar dilution method; assay type: functional
[8] = system: Haemophilus parainfluenzae; test: Antibacterial activity against non-gentamicin-resistant Haemophilus parainfluenzae clinical isolate after 18 hrs by agar dilution method; assay type: functional
Staphylococcus aureus [9] = test: Antibacterial activity against non-gentamicin-resistant Staphylococcus aureus clinical isolate after 18 hrs by agar dilution method; assay type: functional
[10] = system: Staphylococcus epidermidis; test: Antibacterial activity against non-gentamicin-resistant Staphylococcus epidermidis clinical isolate after 18 hrs by agar dilution method; assay type: functional
Klebsiella pneumoniae [11] = test: Antibacterial activity against non-gentamicin-resistant Klebsiella pneumoniae clinical isolate assessed as susceptible isolates after 18 hrs by agar dilution method; assay type: functional
Proteus mirabilis [12] = test: Antibacterial activity against non-gentamicin-resistant Proteus mirabilis clinical isolate assessed as susceptible isolates after 18 hrs by agar dilution method; assay type: functional
Serratia marcescens [13] = test: Antibacterial activity against non-gentamicin-resistant Serratia marcescens clinical isolate assessed as susceptible isolates after 18 hrs by agar dilution method; assay type: functional
Morganella morganii [14] = test: Antibacterial activity against non-gentamicin-resistant Morganella morganii clinical isolate assessed as susceptible isolates after 18 hrs by agar dilution method; assay type: functional
Providencia rettgeri [15] = test: Antibacterial activity against non-gentamicin-resistant Proteus rettgeri clinical isolate assessed as susceptible isolates after 18 hrs by agar dilution method; assay type: functional
[16] = system: Acinetobacter calcoaceticus; test: Antibacterial activity against non-gentamicin-resistant Acinetobacter calcoaceticus clinical isolate assessed as susceptible isolates after 18 hrs by agar dilution method; assay type: functional
Pseudomonas aeruginosa = test: Antibacterial activity against non-gentamicin-resistant Pseudomonas aeruginosa clinical isolate assessed as susceptible isolates after 18 hrs by agar dilution method; assay type: functional
Pseudomonas sp. [17] = test: Antibacterial activity against non-gentamicin-resistant Pseudomonas spp. clinical isolate assessed as susceptible isolates after 18 hrs by agar dilution method; assay type: functional
[18] = system: Haemophilus parainfluenzae; test: Antibacterial activity against non-gentamicin-resistant Haemophilus parainfluenzae clinical isolate assessed as susceptible isolates after 18 hrs by agar dilution method; assay type: functional, organism-based
Staphylococcus aureus [19] = test: Antibacterial activity against non-gentamicin-resistant Staphylococcus aureus clinical isolate assessed as susceptible isolates after 18 hrs by agar dilution method; assay type: functional
[20] = system: Staphylococcus epidermidis; test: Antibacterial activity against non-gentamicin-resistant Staphylococcus epidermidis clinical isolate assessed as susceptible isolates after 18 hrs by agar dilution method; assay type: functional
Escherichia coli [21] = test: Antibacterial activity against gentamicin-resistant Escherichia coli clinical isolate after 18 hrs by agar dilution method; assay type: functional
Klebsiella pneumoniae [22] = test: Antibacterial activity against gentamicin-resistant Klebsiella pneumoniae clinical isolate after 18 hrs by agar dilution method; assay type: functional
Enterobacter cloacae [23] = test: Antibacterial activity against gentamicin-resistant Enterobacter cloacae clinical isolate after 18 hrs by agar dilution method; assay type: functional
Citrobacter koseri [24] = test: Antibacterial activity against gentamicin-resistant Citrobacter diversus clinical isolate after 18 hrs by agar dilution method; assay type: functional
Serratia marcescens [25] = test: Antibacterial activity against gentamicin-resistant Serratia marcescens clinical isolate after 18 hrs by agar dilution method; assay type: functional
Morganella morganii [26] = test: Antibacterial activity against gentamicin-resistant Morganella morganii clinical isolate after 18 hrs by agar dilution method; assay type: functional
Providencia rettgeri [27] = test: Antibacterial activity against gentamicin-resistant Proteus rettgeri clinical isolate after 18 hrs by agar dilution method; assay type: functional
[28] = system: Acinetobacter calcoaceticus; test: Antibacterial activity against gentamicin-resistant Acinetobacter calcoaceticus clinical isolate after 18 hrs by agar dilution method; assay type: functional
Pseudomonas sp. [29] = test: Antibacterial activity against gentamicin-resistant Pseudomonas spp. clinical isolate after 18 hrs by agar dilution method; assay type: functional
Staphylococcus aureus [30] = test: Antibacterial activity against gentamicin-resistant Staphylococcus aureus clinical isolate after 18 hrs by agar dilution method; assay type: functional
[31] = system: Staphylococcus epidermidis; test: Antibacterial activity against gentamicin-resistant Staphylococcus epidermidis clinical isolate after 18 hrs by agar dilution method; assay type: functional
Escherichia coli [32] = test: Antibacterial activity against gentamicin-resistant Escherichia coli clinical isolate assessed as susceptible isolates after 18 hrs by agar dilution method; assay type: functional
Klebsiella pneumoniae [33] = test: Antibacterial activity against gentamicin-resistant Klebsiella pneumoniae clinical isolate assessed as susceptible isolates after 18 hrs by agar dilution method; assay type: functional
Citrobacter koseri [34] = test: Antibacterial activity against gentamicin-resistant Citrobacter diversus clinical isolate assessed as susceptible isolates after 18 hrs by agar dilution method; assay type: functional
Serratia marcescens [35] = test: Antibacterial activity against gentamicin-resistant Serratia marcescens clinical isolate assessed as susceptible isolates after 18 hrs by agar dilution method; assay type: functional
Morganella morganii [36] = test: Antibacterial activity against gentamicin-resistant Morganella morganii clinical isolate assessed as susceptible isolates after 18 hrs by agar dilution method; assay type: functional
Providencia rettgeri [37] = test: Antibacterial activity against gentamicin-resistant Proteus rettgeri clinical isolate assessed as susceptible isolates after 18 hrs by agar dilution method; assay type: functional
[38] = system: Acinetobacter calcoaceticus; test: Antibacterial activity against gentamicin-resistant Acinetobacter calcoaceticus clinical isolate assessed as susceptible isolates after 18 hrs by agar dilution method; assay type: functional
Pseudomonas sp. [39] = test: Antibacterial activity against gentamicin-resistant Pseudomonas spp. clinical isolate assessed as susceptible isolates after 18 hrs by agar dilution method; assay type: functional
Staphylococcus aureus [40] = test: Antibacterial activity against gentamicin-resistant Staphylococcus aureus clinical isolate assessed as susceptible isolates after 18 hrs by agar dilution method; assay type: functional
[41] = system: Staphylococcus epidermidis; test: Antibacterial activity against gentamicin-resistant Staphylococcus epidermidis clinical isolate assessed as susceptible isolates after 18 hrs by agar dilution method; assay type: functional
Enterococcus faecalis = test: Antibacterial activity against gentamicin-resistant Enterococcus faecalis clinical isolate assessed as susceptible isolates after 18 hrs by agar dilution method; assay type: functional, organism-based
[42] = system: Escherichia coli BL21(DE3); test: Acetylation activity of AAC(6')-APH(2'') in Escherichia coli BL21(DE3) assessed as production of free pyridine-4-thiolate

Structure (SMILES): CN[C@@H]1[C@@H](O)[C@@H](O[C@@H]2[C@@H](O)[C@H](O[C@@H]3OC(C(C)N)=CC[C@@H]3N)[C@@H](N)C[C@H]2N)OC[C@]1(C)O (stereo not given in full) [VERDAMICIN]
- MIC50 (Escherichia coli [1]): 0.5 µg/mL (≈ 1.08 µM)
- MIC90 (Escherichia coli [1]): 0.5 µg/mL (≈ 1.08 µM)
- MIC (Enterobacter cloacae [2]): 0.25 µg/mL (≈ 0.542 µM)
- MIC50 (Enterobacter cloacae [2]): 0.25 µg/mL (≈ 0.542 µM)
- MIC90 (Enterobacter cloacae [2]): 0.5 µg/mL (≈ 1.08 µM)
- MIC50 (Klebsiella aerogenes): 0.5 µg/mL (≈ 1.08 µM)
- MIC90 (Klebsiella aerogenes): 1 µg/mL (≈ 2.17 µM)
- MIC50 (Proteus mirabilis [3]): 1 µg/mL (≈ 2.17 µM)
- MIC90 (Proteus mirabilis [3]): 2 µg/mL (≈ 4.33 µM)
- MIC50 (Serratia marcescens [4]): 0.25 µg/mL (≈ 0.542 µM)
- MIC90 (Serratia marcescens [4]): 0.5 µg/mL (≈ 1.08 µM)
- MIC50 (Morganella morganii [5]): 1 µg/mL (≈ 2.17 µM)
- MIC90 (Morganella morganii [5]): 2 µg/mL (≈ 4.33 µM)
- MIC50 (Citrobacter freundii): 0.5 µg/mL (≈ 1.08 µM)
- MIC90 (Citrobacter freundii): 64 µg/mL (≈ 139 µM)
- MIC50 (Providencia rettgeri [6]): 2 µg/mL (≈ 4.33 µM)
- MIC90 (Providencia rettgeri [6]): 8 µg/mL (≈ 17.3 µM)
- MIC50 [7]: 0.5 µg/mL (≈ 1.08 µM)
- MIC90 [7]: 2 µg/mL (≈ 4.33 µM)
- MIC50 [8]: 1 µg/mL (≈ 2.17 µM)
- MIC90 [8]: 2 µg/mL (≈ 4.33 µM)
- MIC50 (Staphylococcus aureus [9]): 0.125 µg/mL (≈ 0.271 µM)
- MIC90 (Staphylococcus aureus [9]): 8 µg/mL (≈ 17.3 µM)
- MIC50 [10]: 0.5 µg/mL (≈ 1.08 µM)
- MIC90 [10]: 32 µg/mL (≈ 69.3 µM)
- Activity (Klebsiella pneumoniae [11]): 98.8%
- Activity (Proteus mirabilis [12]): 100%
- Activity (Serratia marcescens [13]): 96.3%
- Activity (Morganella morganii [14]): 100%
- Activity (Providencia rettgeri [15]): 100%
- Activity [16]: 98%
- Activity (Pseudomonas aeruginosa): 86.9%
- Activity (Pseudomonas sp. [17]): 100%
- Activity [18]: inactive
- Activity (Staphylococcus aureus [19]): 94.8%
- Activity [20]: 75%
- MIC50 (Escherichia coli [21]): 32 µg/mL (≈ 69.3 µM)
- MIC90 (Escherichia coli [21]): 128 µg/mL (≈ 277 µM)
- MIC50 (Klebsiella pneumoniae [22]): 128 µg/mL (≈ 277 µM)
- MIC90 (Klebsiella pneumoniae [22]): > 128 µg/mL
- MIC50 (Enterobacter cloacae [23]): 128 µg/mL (≈ 277 µM)
- MIC90 (Enterobacter cloacae [23]): > 128 µg/mL
- MIC50 (Citrobacter koseri [24]): > 128 µg/mL
- MIC90 (Citrobacter koseri [24]): > 128 µg/mL
- MIC50 (Serratia marcescens [25]): > 128 µg/mL
- MIC90 (Serratia marcescens [25]): > 128 µg/mL
- MIC50 (Morganella morganii [26]): 64 µg/mL (≈ 139 µM)
- MIC90 (Morganella morganii [26]): 128 µg/mL (≈ 277 µM)
- MIC50 (Providencia rettgeri [27]): 32 µg/mL (≈ 69.3 µM)
- MIC90 (Providencia rettgeri [27]): 128 µg/mL (≈ 277 µM)
- MIC50 [28]: > 128 µg/mL
- MIC90 [28]: > 128 µg/mL
- MIC50 (Pseudomonas sp. [29]): 128 µg/mL (≈ 277 µM)
- MIC90 (Pseudomonas sp. [29]): > 128 µg/mL
- MIC50 (Staphylococcus aureus [30]): 32 µg/mL (≈ 69.3 µM)
- MIC90 (Staphylococcus aureus [30]): > 128 µg/mL
- MIC50 [31]: 8 µg/mL (≈ 17.3 µM)
- MIC90 [31]: > 128 µg/mL
- Activity (Escherichia coli [32]): 3.5%
- Activity (Klebsiella pneumoniae [33]): 10.7%
- Activity (Citrobacter koseri [34]): 0%
- Activity (Serratia marcescens [35]): 10%
- Activity (Morganella morganii [36]): 8.3%
- Activity (Providencia rettgeri [37]): 20%
- Activity [38]: 16%
- Activity (Pseudomonas sp. [39]): 3.8%
- Activity (Staphylococcus aureus [40]): 5.6%
- Activity [41]: 50%
- Activity (Enterococcus faecalis): inactive
- Km [42]: 656 µM
